Results as given in patent US8163724B2, “Glucocorticosteroids, processes for their preparation, pharmaceutical compositions containing them and their use in therapy” (AstraZeneca AB, priority 2007, dated 2012).
pIC50: −log10 of the molar value.

target: T1, recombinant human GR (Homo sapiens, UniProt P04150); assay: Human Glucocorticoid Receptor (GR) Assay (fluorescence polarization, Panvera/Invitrogen kit); type: binding; details: fluorescence polarization; GS Red tracer; 2 hours at room temperature; 100% control 10 μM Dexamethasone; read-out: Inhibition of GR binding, IC50
T1 construct: purchased Panvera/Invitrogen P2812 (kit P2893)
T1 sequence (P04150 1-777): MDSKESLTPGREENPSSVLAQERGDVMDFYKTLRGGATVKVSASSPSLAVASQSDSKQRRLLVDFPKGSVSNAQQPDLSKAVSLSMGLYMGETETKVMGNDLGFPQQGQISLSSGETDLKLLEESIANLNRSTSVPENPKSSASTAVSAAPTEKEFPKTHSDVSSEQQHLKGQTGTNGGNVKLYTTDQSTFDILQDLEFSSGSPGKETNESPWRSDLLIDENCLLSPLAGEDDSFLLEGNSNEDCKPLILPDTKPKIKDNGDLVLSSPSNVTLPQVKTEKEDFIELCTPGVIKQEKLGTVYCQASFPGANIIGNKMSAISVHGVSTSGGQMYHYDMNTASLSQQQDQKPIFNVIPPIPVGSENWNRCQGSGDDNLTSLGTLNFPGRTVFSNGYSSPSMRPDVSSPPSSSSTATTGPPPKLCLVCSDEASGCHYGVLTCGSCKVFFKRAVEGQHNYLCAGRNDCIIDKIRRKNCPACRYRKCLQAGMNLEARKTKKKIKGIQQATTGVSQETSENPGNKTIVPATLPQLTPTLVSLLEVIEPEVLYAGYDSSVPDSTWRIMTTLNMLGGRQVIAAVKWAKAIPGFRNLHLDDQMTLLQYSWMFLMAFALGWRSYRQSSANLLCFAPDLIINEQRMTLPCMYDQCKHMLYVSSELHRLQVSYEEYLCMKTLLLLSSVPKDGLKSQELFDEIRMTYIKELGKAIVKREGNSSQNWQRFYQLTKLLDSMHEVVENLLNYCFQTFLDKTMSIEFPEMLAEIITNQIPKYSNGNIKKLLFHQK
Procedure, shortened: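 Fluorescence polarization competition with recombinant GR and GS Red fluorescent ligand plus stabilizing peptide and DTT in potassium phosphate/sodium molybdate/EDTA buffer with DMSO. Incubated 2 hours at room temperature in the dark; 0% control DMSO, 100% control 10 μM dexamethasone.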

| Structure (SMILES) | pIC50 |
| --- | --- |
| C[C@]12Cc3cnn(-c4cccc(Br)c4)c3C=C1CC[C@@H]1[C@@H]2[C@@H](O)C[C@@]2(C)[C@H]1CC[C@]2(OC(=O)c1ccco1)C(=O)SCF [Example 71, (1R,3aS,10aR,10bS,11S,12aS)-7-(3-Bromophenyl)-1-{[(fluoromethyl)thio]carbonyl}-11-hydroxy-10a,12a-dimethyl-1,2,3,3a,3b,4,5,7,10,10a,10b,11,12,12a-tetradecaphydrocyclopenta[5,6]naphtho[1,2-f]indazol-1-yl furan-2-carboxylate] | 7.89 |
| C=Cc1cccc(-n2ncc3c2C=C2CC[C@@H]4[C@H]([C@@H](O)C[C@@]5(C)[C@H]4CC[C@]5(OC(=O)c4ccco4)C(=O)SCF)[C@@]2(C)C3)c1 [Example 72, (1R,10aR,11S,12aS)-7-(3-Ethenylphenyl)-1-{[(fluoromethyl)thio]carbonyl}-11-hydroxy-10a,12a-dimethyl-1,2,3,3a,3b,4,5,7,10a,10b,11,12,12a-tetradecahydrocyclopenta[5,6]naphtho[1,2-f]indazol-1-yl furan-2-carboxylate] | 7.77 |
| COCc1cc(-n2ncc3c2C=C2CC[C@@H]4[C@H]([C@@H](O)C[C@@]5(C)[C@H]4CC[C@]5(OC(=O)c4ccco4)C(=O)SCC#N)[C@@]2(C)C3)ccc1F [Example 73, (1R,3aS,3bS,10aR,10bS,11S,12aS)-1-{[(Cyanomethyl)thio]carbonyl}-7-[4-fluoro-3-(methoxymethyl)phenyl]-11-hydroxy-10a,12a-dimethyl-1,2,3,3a,3b,4,5,7,10,10a,10b,11,12,12a-tetradecahydrocyclopenta[5,6]naphtho[1,2-f]indazol-1-yl furan-2-carboxylate] | 8.19 |
| COCc1cc(-n2ncc3c2C=C2CC[C@@H]4[C@H]([C@@H](O)C[C@@]5(C)[C@H]4CC[C@]5(OC(=O)c4ccco4)C(=O)SCF)[C@@]2(C)C3)ccc1F [Example 74, (1R,3aS,3bS,10aR,10bS,11S,12aS)-7-[4-Fluoro-3-(methoxymethyl)phenyl]-1-{[(fluoromethyl)thio]carbonyl}-11-hydroxy-10a,12a-dimethyl-1,2,3,3a,3b,4,5,7,10,10a,10b,11,12,12a-tetradecahydrocyclopenta[5,6]naphtho[1,2-f]indazol-1-yl furan-2-carboxylate] | 7.66 |
| C[C@]12Cc3cnn(-c4ccc(F)c(CF)c4)c3C=C1CC[C@@H]1[C@@H]2[C@@H](O)C[C@@]2(C)[C@H]1CC[C@]2(OC(=O)c1ccco1)C(=O)SCC#N [Example 75, (1R,3aS,3bS,10aR,10bS,11S,12aS)-1-{[(Cyanomethyl)thio]carbonyl}-7-[4-fluoro-3-(fluoromethyl)phenyl]-11-hydroxy-10a,12a-dimethyl-1,2,3,3a,3 b,4,5,7,10,10a,10b,11,12,12a-tetradecahydrocyclopenta[5,6]naphtho[1,2-f]indazol-1-yl furan-2-carboxylate] | 8.14 |
| C[C@]12Cc3cnn(-c4ccc(F)c(CF)c4)c3C=C1CC[C@@H]1[C@@H]2[C@@H](O)C[C@@]2(C)[C@H]1CC[C@]2(OC(=O)c1ccco1)C(=O)SCF [Example 76, (1R,3aS,3bS,10aR,10bS,11S,12aS)-7-[4-Fluoro-3-(fluoromethyl)phenyl]-1-{[(fluoromethyl)thio]carbonyl}-11-hydroxy-10a,12a-dimethyl-1,2,3,3a,3b,4,5,7,10,10a,10b,11,12,12a-tetradecahydrocyclopenta[5,6]naphtho[1,2]-indazol-1-yl furan-2-carboxylate] | 7.46 |
| C=CCOCc1cc(-n2ncc3c2C=C2CC[C@@H]4[C@H]([C@@H](O)C[C@@]5(C)[C@H]4CC[C@]5(OC(=O)c4ccco4)C(=O)SCC#N)[C@@]2(C)C3)ccc1F [Example 77, (1R,3aS,3bS,10aR,10bS,11S,12aS)-1-{[(Cyanomethyl)thio]carbonyl}-7-{4-fluoro-3-[(prop-2-en-1-yloxy)methyl]phenyl}-11-hydroxy-10a,12a-dimethyl-1,2,3,3a,3b, 4,5,7,10,10a,10b,11,12,12a-tetradecahydrocyclopenta[5,6]naphtho[1,2-f]indazol-1-yl furan-2-carboxylate] | 7.66 |
| C=CCOCc1cc(-n2ncc3c2C=C2CC[C@@H]4[C@H]([C@@H](O)C[C@@]5(C)[C@H]4CC[C@]5(OC(=O)c4ccco4)C(=O)NC)[C@@]2(C)C3)ccc1F [Example 78, (1R,3aS,3bS,10aR,10bS,11S,12aS)-7-{4-Fluoro-3-[(prop-2-en-1-yloxy)methyl]phenyl}-11-hydroxy-10a,12a-dimethyl-1-(methylcarbamoyl)-1,2,3,3a,3b,4,5,7,10,10a,10b,11,12,12a-tetradecahydrocyclopenta[5,6]naphtho[1,2-f]indazol-1-yl furan-2-carboxylate] | 7.92 |
| C[C@]12Cc3cnn(-c4ccc(F)c(CO)c4)c3C=C1CC[C@@H]1[C@@H]2[C@@H](O)C[C@@]2(C)[C@H]1CC[C@]2(OC(=O)c1ccco1)C(=O)OCC#N [Example 79, Cyanomethyl(1R,3aS,3bS,10aR,10bS,11S,12aS)-7-[4-fluoro-3-(hydroxymethyl)phenyl]-1-[(furan-2-ylcarbonyl)oxy]-11-hydroxy-10a,12a-dimethyl-1,2,3,3a,3b,4,5,7,10,10a,10b,11,12,12a-tetradecahydrocyclopenta[5,6]naphtho[1,2-f]indazole-1-carboxylate] | 8.38 |
| C[C@]12Cc3cnn(-c4ccc(F)c(CO)c4)c3C=C1CC[C@@H]1[C@@H]2[C@@H](O)C[C@@]2(C)[C@H]1CC[C@]2(OC(=O)c1ccco1)C(=O)SCC#N [Example 80, (1R,3aS,3bS,10aR,10bS,11S,12aS)-1-{[(Cyanomethyl)thio]carbonyl}-7-[4-fluoro-3-(hydroxymethyl)phenyl]-11-hydroxy-10a,12a-dimethyl-1,2,3,3a,3b,4,5,7,10,10a,10b,11,12,12a-tetradecahydrocyclopenta[5,6]naphtho[1,2]-indazol-1-yl furan-2-carboxylate] | 8.38 |
| C[C@]12Cc3cnn(-c4ccc(F)c(CO)c4)c3C=C1CC[C@@H]1[C@@H]2[C@@H](O)C[C@@]2(C)[C@H]1CC[C@]2(OC(=O)c1ccco1)C(=O)SCF [Example 81, (1R,3aS,3bS,10aR,10bS,11S,12aS)-7-[4-Fluoro-3-(hydroxymethyl)phenyl]-1-{[(fluoromethyl)thio]carbonyl}-11-hydroxy-10a,12a-dimethyl-1,2,3,3a,3b,4,5,7,10,10a,10b,11,12,12a-tetradecahydrocyclopenta[5,6]naphtho[1,2-f]indazol-1-yl furan-2-carboxylate] | 8.35 |
| CSCSC(=O)[C@@]1(OC(=O)c2ccco2)CC[C@H]2[C@@H]3CCC4=Cc5c(cnn5-c5ccc(F)cc5)C[C@]4(C)[C@H]3[C@@H](O)C[C@@]21C [Example 82, (1R,3aS,3bS,10aR,10bS,11S,12aS)-7-(4-Fluorophenyl)-11-hydroxy-10a,12a-dimethyl-1-({[(methylsulfanyl)methyl]sulfanyl}carbonyl)-1,2,3,3a,3b,4,5,7,10,10a,10b,11,12,12a-tetradecahydrocyclopenta[5,6]naphtho[1,2-f]indazol-1-yl furan-2-carboxylate] | 8.07 |
| C[C@]12Cc3cnn(-c4ccc(F)cc4)c3C=C1CC[C@@H]1[C@@H]2[C@@H](O)C[C@@]2(C)[C@H]1CC[C@]2(OC(=O)c1ccco1)C(=O)SCSC#N [Example 83, (1R,3aS,3bS,10aR,10bS,11S,12aS)-7-(4-Fluorophenyl)-11-hydroxy-10a,12a-dimethyl-1-{[(thiocyanatomethyl)sulfanyl]carbonyl}-1,2,3,3a,3b,4,5,7,10,10a,10b,11,12,12a-tetradecahydrocyclopenta[5,6]naphtho[1,2-f]indazol-1-yl furan-2-carboxylate] | 7.74 |
| C[C@]12Cc3cnn(-c4ccc(F)cc4)c3C=C1CC[C@@H]1[C@@H]2[C@@H](O)C[C@@]2(C)[C@H]1CC[C@]2(OC(=O)c1ccco1)C(=O)SCC(O)CO (stereo partly drawn) [Example 84, (1R,3aS,3bS,10aR,10bS,11S,12aS)-1-{[(2,3-Dihydroxypropyl)sulfanyl]carbonyl}-7-(4-fluorophenyl)-11-hydroxy-10a,12a-dimethyl-1,2,3,3a,3b,4,5,7,10,10a,10b,11,12,12a-tetradecahydrocyclopenta[5,6]naphtho[1,2-f]indazol-1-yl furan-2-carboxylate] | 8.30 |
| COCCCSC(=O)[C@@]1(OC(=O)c2ccco2)CC[C@H]2[C@@H]3CCC4=Cc5c(cnn5-c5ccc(F)cc5)C[C@]4(C)[C@H]3[C@@H](O)C[C@@]21C [Example 85, (1R,3aS,3bS,10aR,10bS,11S,12aS)-7-(4-Fluorophenyl)-11-hydroxy-{[(3-methoxypropyl)sulfanyl]carbonyl}-10a,12a-dimethyl-1,2,3,3a,3b,4,5,7,10,10a,10b,11,12,12a-tetradecahydrocyclopenta[5,6]naphtho[1,2-f]indazol-1-yl furan-2-carboxylate] | 8.20 |
